Results: article PMC7044140, “Comparative studies on similarities and differences of cyclodipeptide oxidases for installation of C–C double bonds at the diketopiperazine ring” (Applied Microbiology and Biotechnology, 2020)

Key:
[1] = molecular target: T1, CDO-Np (CDO-NpA/CDO-NpB) (Nocardiopsis sp. L17-MgMaSL7, UniProt A0A317LX08+A0A317LXS7); experiment: LC-MS/HPLC product formation with E. coli crude extract; type: biochemical; conditions: 1 mM substrate, 1 mM phenazine methosulfate, pH 7.5, 40 °C; dehydrogenation
T1 construct: gene BDW27_11054; desalted crude extract
T1 sequence (A0A317LXS7 1-185): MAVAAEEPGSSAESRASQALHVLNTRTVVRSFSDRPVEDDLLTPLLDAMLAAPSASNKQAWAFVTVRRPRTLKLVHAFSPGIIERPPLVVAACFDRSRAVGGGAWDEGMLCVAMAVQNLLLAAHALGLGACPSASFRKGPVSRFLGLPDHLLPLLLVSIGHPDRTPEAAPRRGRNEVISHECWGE
T1 sequence (A0A317LX08 1-105): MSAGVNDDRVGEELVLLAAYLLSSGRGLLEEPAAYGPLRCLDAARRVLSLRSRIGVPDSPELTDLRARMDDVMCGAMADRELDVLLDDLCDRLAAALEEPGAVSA

[2] = molecular target: T2, AlbA/B (Streptomyces noursei, UniProt Q8GED8+Q8GED9); experiment: as above; type: biochemical; conditions: 1 mM substrate, 1 mM phenazine methosulfate, pH 7.5, 40 °C; dehydrogenation
T2 construct: both subunits co-expressed from overlapping genes in pQE-60 (pKB90) in E. coli SG 13009; desalted crude extract; CDOs described as multimers above 2000 kDa, estimated B to A ratio 1:10
T2 sequence (Q8GED9 whole entry): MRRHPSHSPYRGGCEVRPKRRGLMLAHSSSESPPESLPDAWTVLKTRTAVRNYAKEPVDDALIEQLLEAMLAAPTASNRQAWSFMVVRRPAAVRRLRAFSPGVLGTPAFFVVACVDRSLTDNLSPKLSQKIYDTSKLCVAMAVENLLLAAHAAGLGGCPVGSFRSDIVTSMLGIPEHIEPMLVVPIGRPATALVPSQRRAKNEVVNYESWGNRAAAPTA
T2 sequence (Q8GED8 whole entry): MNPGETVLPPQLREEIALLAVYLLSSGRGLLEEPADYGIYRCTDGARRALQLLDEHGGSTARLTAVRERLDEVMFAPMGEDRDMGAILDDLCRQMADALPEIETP

## CC(C)C[C@@H]1NC(=O)[C@H](Cc2ccccc2)NC1=O [1a, cyclo-L-Phe-L-Leu]
[1]
  LC-MS/HPLC product formation with E. coli crude extract: CDO-Np showed very high activity toward 1a and 2a

## O=C1N[C@@H](Cc2ccc(O)cc2)C(=O)N[C@H]1Cc1ccccc1 [2a, cyclo-L-Phe-L-Tyr]
[2]
  LC-MS/HPLC product formation with E. coli crude extract: The behavior of AlbA/B with 2a was similar to CDO-Np with 3a and 5a
[1]
  LC-MS/HPLC product formation with E. coli crude extract: In vitro incubation of 2a with CDO-Np led to an almost complete conversion to 2d

## O=C1N[C@@H](Cc2c[nH]c3ccccc23)C(=O)N[C@H]1Cc1ccc(O)cc1 [3a, cyclo-L-Trp-L-Tyr]
[2]
  LC-MS/HPLC product formation with E. coli crude extract: Only one didehydrogenated product 3b or 5b was detected in the reaction mixtures of AlbA/B
